One molecule from patent US6346529B1, “Antiviral therapy using thiazine dyes” (Oklahoma Medical Research Foundation, priority 1988, dated 2002) can be followed below.

Assay type in all cases: cell-based
Assay [1] relates to HSV-1 (F strain). Briefly: HSV plaque reduction assay in Vero cells, HSV-1. Conditions: Human alphaherpesvirus 1, Vero, light/dark not stated; read-out: Antiviral Effect: EC50 HSV-1. On the procedure: (§1) HSV Preparation: Confluent HEp-2 cells, in a roller bottle (Falcon, 850 cm^2), were infected at an input multiplicity of 0.01 PFU per cell (to minimize production of defective viruses). During the two-hour absorption period, the cells were exposed to the virus inoculum diluted in absorption buffer (10 ml PBS containing 1% newborn calf serum and 0.1% glucose). The virus inoculum was then removed and replaced with Hanks' Minimum Essential Medium (MEM) containing 2% inactivated newborn calf serum, penicillin (100 U/ml) and streptomycin (100 μg/ml) (P and S), sodium bicarbonate (2 g/L) and HEPES (25 mM) (maintenance medium). The infected cells were incubated at 37° C. for 3 to 4 days, until the cells could be easily shaken from the plastic surface of the culture bottles. The cells were then collected by centrifugation, suspended in a small volume of spent culture fluid (5 ml per 2×10^8 cells) and sonicated 3 times for one min on ice. The disrupted cells were centrifuged (2,000 g for 15 min at 4° C. and the supernatant was diluted with an equal volume of sterile skimmed milk (as stabilizer) and aliquots were frozen at −70° C.
(§2) HSV Plaque Reduction Assay: Near confluent Vero (African Green Monkey) cells in 6-well plates were infected with 100 μl virus diluted in absorption buffer to give 100-200 plaques per well. The plates were then incubated at 37° C. for 1 hour with intermittent rocking every 15 minutes. The inoculum was aspirated and the compounds at different concentrations (dissolved in maintenance medium) were added to replicate wells. For these assays, 0.1% pooled human gamma globulin was included in the media. The plates were placed in 5% CO2-95% air incubator and the plaques were allowed to develop for 48 h prior to fixation (buffered 10% Formalin acetate), staining (0.5% crystal violet in 20% EtOH/H2O) and enumeration. The degree of inhibition (percent plaques of control) was calculated by counting the mean plaque counts for the different drug dilutions. […] For routine antiviral drug screening, we used the F strain of HSV-1 and the G strain of HSV-2 (Ejercito, et al., “Characterization of Herpes Simplex virus Strains Differing in Their Effect on Social Behavior of Infected Cells,” J. Gen. Virol. 2, 357-364 (1968)). […] Acyclovir (ACV) was used as a positive control for the studies on HSV.
(§3) Median-Effect Method: EC50 and IC50 values were obtained by analysis of the data using the median-effect equation (Chou, T., et al., “Quantitative Analysis of Dose-Effect Relationships: The Combined Effects of Multiple Drugs or Enzyme Inhibitors,” Adv. Enz. Regul. 22, 27-55 (1984).
Background: Plaques are areas of infected cells; plaque reduction assays count them against a control.

Assay [2] has as its system HIV-1 (strain LAV-1). In words: Inhibition of HIV-1 replication in human PBMC (supernatant RT activity). Conditions: Human immunodeficiency virus 1, PBMC; light/dark not stated; read-out: Antiviral Effect: EC50 HIV-1. On the procedure:
Cells: Human peripheral blood mononuclear cells (PBMC) from healthy HIV-1 seronegative and hepatitis B virus seronegative donors were isolated by Ficoll-Hypaque discontinuous gradient centrifugation at 1,000×g for 30 minutes, washed twice in phosphate-buffered saline (pH 7.2; PBS), and pelleted at 300×g for 10 minutes. Before infection, the cells were stimulated by phytohemagglutinin (PHA) at a concentration of 16.7 μg/ml, and 4 mM sodium bicarbonate buffer.
Retrovirus: HIV-1 (strain LAV-1) was obtained from Dr. P. Feorino (Centers for Disease Control, Atlanta, Ga.). The virus was propagated in human PBMC using RPMI 1640 medium, as described previously by McDougal, et al., (“Immunoassay for the detection and quantitation of infectious human retrovirus, lymphadenopathy-associated virus (LAV),” J. Immun. Meth. 76, 171-183, 1985) without PBA or fungizone and supplemented with 7% (v/v) interleukin-2 (Advanced Biotechnologies, Silver Spring, Md.), 7 μg/ml DEAE-dextran (Pharmacia, Uppsala, Sweden), and 370 U/ml anti-human leukocyte (alpha) interferon (ICN, Lisle, Ill.). Virus obtained from cell-free culture supernatant was titrated and stored in aliquots at −70° C. until use.
Inhibition of Virus Replication in Human PBMC: Uninfected PHA-stimulated human PBMC were uniformly distributed among 25 cm^2 flasks to give a 5 ml suspension containing about 2×10^6 cells/ml. Suitable dilutions of virus were added to infect the cultures. The mean reverse transcriptase (RT) activity of the inocula was 50,000 dpm/ml corresponding to about 100 TCID50, as determined by Groopman, et al., (1987), “Characterization of Serum Neutralization Response to the Human Immunodeficiency Virus (HIV),” AIDS Res. Human Retro. 3, 71-85. The drugs, at twice their final concentrations in 5 ml of RPMI 1640 medium (supplemented as described above), were added to the cultures. Uninfected and untreated PBMC at equivalent cell densities were grown in parallel as controls. The cultures were maintained in a humidified 5% CO2-95% air incubator at 37° C. for six days after infection at which point all cultures were sampled for supernatant RT activity.
RT Activity Assay: A […] aliquot of supernatant from each culture was clarified of cells at 300×g for 10 minutes. […]
The RT assay was performed in 96-well microtiter plates, as described by Spira, et al. (1987), “Micromethod for Assaying the Reverse Transcriptase of LAV-HTLV-III/Lymphadenopathy-Associated Virus,” J. Clin. Microbiol. […] Four ml of scintillation fluid (Econofluor, NEN Research Products, Boston, Mass.) were added and the amount of radioactivity in each sample was determined using a Packard Tri-Carb liquid scintillation analyzer (model 2,000CA). […]

In assay [3] the test system is HIV (LAV-I). Briefly: HIV in human PBMC, P24 levels by EIA. On the procedure: While the previous example measured RT activity, the present example utilizes a direct quantitation of a viral protein (P24) as an indicator of antiviral effectiveness.
Peripheral blood mononuclear (PBM) cells were infected with HIV and treated with methylene blue as described above. The EC50 levels were calculated from enzyme immuno-assay (EIA) measurements of viral coat protein P24. The P24-specific EIA kit was purchased from Abbott Labs.

The test system of assay [4] is HSV-2 (G strain). In words: HSV plaque reduction assay in Vero cells, HSV-2. As to conditions: Human alphaherpesvirus 2, Vero, light/dark not stated; read-out: Antiviral Effect: EC50 HSV-2. As for the experimental part: as §1, §2, §3

Turning to `Cc1cn([C@H]2C[C@H](N=[N+]=[N-])[C@@H](CO)O2)c(=O)[nH]c1=O` [AZT, 3′-azido-3′-deoxythymidine], the EC50 was greater than 100000 nM in assay [1]; 0.22 nM in assay [2]; 6.4 nM in assay [3] (Human immunodeficiency virus 1, PBMC, light/dark not stated, read-out: EC50 (P24)); greater than 100000 nM in assay [4]. The “ng P24/ml” value was 360.7 ng P24/ml in assay [3] (0.0001 μM), 266.2 ng P24/ml in assay [3] (0.001 μM), 36.1 ng P24/ml in assay [3] (0.01 μM) and 5.2 ng P24/ml in assay [3] (0.1 μM). In addition, in assay [3] (Human immunodeficiency virus 1, PBMC, 0.0001 μM, read-out: % Inhibition (corrected)), the inhibition at 0.0001 µM was -0.5%. Moreover, the inhibition at 0.001 µM in assay [3] (Human immunodeficiency virus 1, PBMC, 0.001 μM, read-out: % Inhibition (corrected)) was 25.8%. Further, the inhibition at 0.01 µM in assay [3] (Human immunodeficiency virus 1, PBMC, 0.01 μM, read-out: % Inhibition (corrected)) stood at 89.9%. In assay [3] (Human immunodeficiency virus 1, PBMC, 0.1 μM, read-out: % Inhibition (corrected)), the inhibition at 0.1 µM stood at 98.5%.

Broadly, the EC50 is the concentration needed to bring the measured effect to its halfway point. Usually inhibition stands for the drop in the measured response relative to a control, in per cent.
